This series is described as follows: solvent given as SMILES.

Here are results for 40 compounds from the Deep4Chem optical property database.

For the setting “in CCOC(C)=O”, `C[Si](C)(C)c1cc2c(cc3ccc4cccc5ccc2c3c45)[nH]1` gave a fluorescence lifetime of 2.41 ns.

As to `Nc1ccc(N2C(=O)c3ccc4c5ccc6c7c(ccc(c8ccc(c3c48)C2=O)c75)C(=O)N(c2ccc(O)cc2)C6=O)cc1`, the fluorescence lifetime (in CN(C)C=O) was 3.1 ns.

Turning to `NS(=O)(=O)c1ccc(N2N=C(c3ccc(O)cc3)CC2c2ccc(Cl)cc2)cc1` (centres undefined), the fluorescence lifetime runs as follows: (in C1CCOC1) 2.32 ns; (in C1COCCO1) 2.29 ns; (in CC#N) 2.29 ns; (in CC(C)O) 2 ns; (in CCO) 1.88 ns; (in CCOC(C)=O) 2.34 ns. Further, the fluorescence lifetime (in CN(C)C=O) came out at 2.35 ns, the fluorescence lifetime (in CO) worked out at 1.68 ns, the fluorescence lifetime (in CS(C)=O) stood at 2.49 ns and the fluorescence lifetime (in O) is 3.2 ns.

Turning to `COc1ccc(-c2oc3cccc4c5c(-c6ccc(OC)c(OC)c6)/c(=N/S(=O)(=O)C(F)(F)F)oc6cccc(c2c34)c65)cc1OC`, the fluorescence lifetime (in ClC(Cl)Cl) amounted to 4.4 ns.

`CC1=C(c2ccccc2)C(C)=[N+]2C1=C(c1ccccc1)c1c(C)c(-c3ccccc3)c(C)n1[B-]2(F)F`: the fluorescence lifetime (in Cc1ccccc1) was 4.1 ns.

The compound `c1ccc(-c2nc(-c3ccccc3)nc(-c3ccc(-n4c5ccccc5c5cc(-n6c7ccccc7c7ccccc76)ccc54)cc3)n2)cc1` showed a fluorescence lifetime (in Cc1ccccc1) of 6.5 ns.

With `c1ccc(-c2cnc3nn4ccccc4c3n2)cc1`, for the setting “in C1CCOC1”, the fluorescence lifetime stood at 5.3 ns.

Where the note is “in CC#N”, `CCCCCCCCCC[n+]1cc2ccc3c[n+](CCCCCCCCCC)cc4ccc(c1)c2c34` returned a fluorescence lifetime of 9.5 ns.

For `F[B-]1(F)n2c(c3c(c2-c2ccccc2)C2C=CC3CC2)C(c2ccccc2)=C2C3=C(C(c4ccccc4)=[N+]21)C1C=CC3CC1` (centres undefined), the fluorescence lifetime (in ClCCl) came to 6.1 ns.

For `Cc1cc(=O)c2ccc(N)cc2o1`, the fluorescence lifetime is 3.22 ns (in C1CCOC1); 0.48 ns (in C1COCCO1); 0.59 ns (in CC#N); 4.56 ns (in CC(C)O); 4.01 ns (in CCCCO); 4.68 ns (in CCCO). In addition, the fluorescence lifetime is 0.94 ns (in CCOC(C)=O); 3.37 ns (in CN(C)C=O); 4.45 ns (in CO); 0.8 ns (in CS(C)=O); 3.67 ns (in ClC(Cl)Cl); 5.52 ns (in O).

Take `CC(C)CCCN1c2ccccc2CCc2ccccc21`: the fluorescence lifetime came to 0.89 ns (in CC#N) and 0.86 ns (in CO).

`[NH3+]C(Cc1ccc(O)cc1)C(=O)[O-]` (centres undefined) had a fluorescence lifetime (in O) of 3.27 ns.

For `C(=C\c1nc2ccccc2[nH]1)/c1ccc(/C=C/c2nc3ccccc3[nH]2)cc1`, the fluorescence lifetime came to 1.02 ns (in C1CCOC1); 1.12 ns (in CC#N); 1.07 ns (in CC(C)=O); 0.997 ns (in CN(C)C=O); 1.06 ns (in CO); 0.919 ns (in CS(C)=O).

With `N#Cc1c(-n2c3ccccc3c3ccccc32)cc(N2c3ccccc3C(c3ccccc3)(c3ccccc3)c3ccccc32)cc1-n1c2ccccc2c2ccccc21`, for the setting “in Cc1ccccc1”, the fluorescence lifetime came out at 18.4 ns.

The compound `COc1ccc(-c2cc(-c3ccc(N(C)C)cc3)nc(-c3ccccc3)n2)cc1` returned a fluorescence lifetime (in ClC(Cl)Cl) of 7.1 ns.

Compound `C[n+]1cc2ccc3c[n+](C)c4ccccc4c3c2c2ccccc21` came in with a fluorescence lifetime (in CC#N) of 5.8 ns.

On to `CC1(C)c2ccccc2N(c2ccc(-c3n[n+]4c(o3)-c3ccccc3O[B-]4(F)F)cc2)c2ccccc21`, for which, where the note is “in ClCCl”, the fluorescence lifetime stood at 22 ns.

Under “in CC#N”, `Cn1ccc(=O)n(C)c1=O` showed a fluorescence lifetime of 0.0001 ns.

Compound `C(=C\c1ccc(-c2ccncc2)cc1)/c1ccc(-c2ccncc2)cc1` yielded a fluorescence lifetime (in ClCCl) of 0.85 ns.

Take `CCCCCCN(CCCCCC)c1ccc(C#Cc2ccc(C(F)(F)F)cc2)cc1`: the fluorescence lifetime (in ClCCl) turned out to be 2.1 ns.

For `N#C/C(=C\c1ccc(C#N)cc1)c1nc(-c2ccc(Cl)cc2)c(-c2ccccc2)s1`, the fluorescence lifetime (in CC#N) is 2.48 ns.

Consider `CCCCCCN1C(=O)c2cccc3c(-c4ccc(OC)s4)ccc(c23)C1=O`, for which, where the note is “in ClC(Cl)Cl”, the fluorescence lifetime is 3.88 ns.

Regarding `CC1(C)C(/C=C/C=C/C=C/C=C2/N(CCCCS(=O)(=O)[O-])c3ccc4ccccc4c3C2(C)C)=[N+](CCCCS(=O)(=O)[O-])c2ccc3ccccc3c21`, the fluorescence lifetime by setting is: (in CC(C)=O) 0.87 ns; (in CCO) 0.62 ns; (in CO) 0.51 ns; (in CS(C)=O) 0.97 ns; (in ClC(Cl)Cl) 1.14 ns; (in ClCCl) 0.91 ns. The compound also displayed a fluorescence lifetime (in O) of 0.17 ns.

On to `N#Cc1c(-c2ccc(N(c3ccccc3)c3ccccc3)cc2)c(C#N)c(-c2ccc(N(c3ccccc3)c3ccccc3)cc2)c(C#N)c1-c1ccc(N(c2ccccc2)c2ccccc2)cc1`, for which the fluorescence lifetime (in O=P(c1ccccc1)(c1ccccc1)c1ccccc1Oc1ccccc1P(=O)(c1ccccc1)c1ccccc1) came to 6.21 ns.

For the compound `CC(C)(C)c1ccc(-c2c3c(c(-c4ccc(C(C)(C)C)cc4)c4cc5ccccc5cc24)Cc2c(c(-c4ccc(C(C)(C)C)cc4)c4cc5ccccc5cc4c2-c2ccc(C(C)(C)C)cc2)C3)cc1`, the fluorescence lifetime (in ClCCl) was 2.35 ns.

`Cc1cc2cc3ccccc3cc2cn1` registered a fluorescence lifetime (in CCO) of 18.7 ns.

In the case of `C[Si](C)(C)c1ccc(-c2ccc(-c3ccc(-c4ccc(-c5ccc([Si](C)(C)C)s5)cc4)c4nsnc34)cc2)s1`, the fluorescence lifetime (in C1CCOC1) is 4.4 ns.

`c1ccc2c(c1)-c1ccccc1C21c2ccccc2-c2c1c1c3ccccc3ccc1c1ccccc21` displayed a fluorescence lifetime (in Cc1ccccc1) of 3.14 ns.

Under “in ClCCl”, `c1ccc(N(c2ccccc2)c2ccc(-c3ccc(-c4cc(-c5ccccn5)nc(-c5ccccn5)c4)cc3)cc2)cc1` came in with a fluorescence lifetime of 2.68 ns.

As for `CCCCCCCCCCCCOc1cc2cc(N(C)C)ccc2cc1C=O`, the fluorescence lifetime (in ClCCl) was 4.5 ns.

In turn, `CCOc1ccc(/C=C/C=C/C=C/c2ccc([N+](=O)[O-])cc2)cc1` yielded a fluorescence lifetime (in Cc1ccccc1) of 1.5 ns.

Turning to `COc1ccc(-c2nc(/C(C#N)=C/c3ccc(C#N)cc3)sc2-c2ccc(OC)cc2)cc1`, the fluorescence lifetime (in CC#N) was 2.9 ns.

Turning to `C(#Cc1ccccc1)C(C#Cc1ccccc1)=Cc1cccc(C=C(C#Cc2ccccc2)C#Cc2ccccc2)c1`, the fluorescence lifetime (in ClC(Cl)Cl) came to 0.3 ns.

As for `Nc1ccc2[nH]ncc2c1`, the fluorescence lifetime worked out at 4.9 ns (in C1CCCCC1), 4.7 ns (in CC#N), 6.4 ns (in CO) and 12.5 ns (in O).

For the compound `Cc1ccc(-c2ccc(/C=C/c3cccn3C)cn2)nc1`, the fluorescence lifetime by setting is: (in C1COCCO1) 0.59 ns; (in CC#N) 0.51 ns; (in CCCCCC) 0.86 ns; (in CCO) 0.92 ns; (in CN(C)C=O) 0.65 ns; (in CO) 1 ns. Moreover, the fluorescence lifetime runs as follows: (in CS(C)=O) 0.64 ns; (in Cc1ccccc1) 0.56 ns; (in ClC(Cl)Cl) 0.62 ns; (in c1ccccc1) 0.51 ns.

Compound `CCCCCCCCC1(CCCCCCCC)c2ccccc2-c2ccc(-c3nnc(-c4ccc(-n5c6ccc(C(C)(C)C)cc6c6cc(C(C)(C)C)ccc65)cc4)o3)cc21` gave a fluorescence lifetime (in Cc1ccccc1) of 1.7 ns.

The compound `O=P1(c2ccccc2)c2ccc(N3c4ccccc4Oc4ccccc43)cc2-c2cc(N3c4ccccc4Oc4ccccc43)ccc21` yielded a fluorescence lifetime (in c1ccc2c(c1)c1ccccc1n2-c1ccc(-c2ccc(-n3c4ccccc4c4ccccc43)cc2)cc1) of 35.1 ns.

Under “in C1CCCCC1”, `COC(=O)c1ccc(-c2nc3ccc(N(C)C)cc3s2)cc1` displayed a fluorescence lifetime of 2.4 ns.

Where the note is “in C1CCOC1”, `c1ccc(C2=C(c3ccccc3)[Si](c3ccccc3)(c3ccccc3)c3ccccc32)cc1` gave a fluorescence lifetime of 1.98 ns.

Under “in ClCCl”, `CCOc1cccc2c1O[B-](F)(F)[n+]1c3c(c4c(c1-2)-c1ccccc1CC4)-c1ccccc1CC3` yielded a fluorescence lifetime of 1.73 ns.
